This is an account of results in patent US20260183275A1, “SUBSTITUTED QUINOLONE COMPOUNDS USEFUL AS INHIBITORS OF TLR9” (Bristol-Myers Squibb Company, priority 2022, published 2026).

Holding throughout (assay type): cell-based
One experiment addresses T1, human TLR7 (Homo sapiens, UniProt Q9NYK1).
T1 construct: host or cells: HEK-Blue cells
T1 sequence (Q9NYK1 27-1049): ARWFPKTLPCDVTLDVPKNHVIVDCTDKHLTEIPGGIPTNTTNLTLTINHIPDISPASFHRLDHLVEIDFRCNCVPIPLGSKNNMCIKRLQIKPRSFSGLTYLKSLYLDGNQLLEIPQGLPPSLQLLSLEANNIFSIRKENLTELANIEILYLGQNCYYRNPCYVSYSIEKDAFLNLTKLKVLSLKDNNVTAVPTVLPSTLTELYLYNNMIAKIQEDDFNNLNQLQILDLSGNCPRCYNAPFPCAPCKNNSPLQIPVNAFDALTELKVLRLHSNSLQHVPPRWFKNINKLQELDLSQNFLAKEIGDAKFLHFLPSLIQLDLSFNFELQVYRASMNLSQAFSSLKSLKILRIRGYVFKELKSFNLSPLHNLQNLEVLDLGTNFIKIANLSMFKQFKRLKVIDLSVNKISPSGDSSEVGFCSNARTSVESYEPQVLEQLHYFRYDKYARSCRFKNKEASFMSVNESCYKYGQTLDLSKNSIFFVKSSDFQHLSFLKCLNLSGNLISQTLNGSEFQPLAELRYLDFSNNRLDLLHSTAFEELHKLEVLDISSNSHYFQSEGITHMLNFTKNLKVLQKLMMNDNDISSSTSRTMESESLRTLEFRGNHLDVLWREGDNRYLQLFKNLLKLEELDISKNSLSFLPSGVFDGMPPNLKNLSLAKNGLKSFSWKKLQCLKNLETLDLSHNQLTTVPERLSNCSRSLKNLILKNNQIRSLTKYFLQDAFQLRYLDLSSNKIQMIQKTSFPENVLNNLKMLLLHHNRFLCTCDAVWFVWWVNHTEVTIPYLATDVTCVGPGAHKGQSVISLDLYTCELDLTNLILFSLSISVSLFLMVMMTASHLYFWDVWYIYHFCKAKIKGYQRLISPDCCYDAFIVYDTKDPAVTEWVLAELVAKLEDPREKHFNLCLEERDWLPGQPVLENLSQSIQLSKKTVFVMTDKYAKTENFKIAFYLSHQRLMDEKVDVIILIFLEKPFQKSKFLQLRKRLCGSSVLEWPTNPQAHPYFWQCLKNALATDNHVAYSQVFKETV
The experiment can be described thus: TLR7 inhibition reporter assay (HEK-Blue cells, SEAP reporter). As to conditions: HEK-Blue cells overexpressing human TLR7; stimulated with gardiquimod 7.5 μM; SEAP read after 22 hour; dose range 0.05 nM-50 μM. As to the method: (§1) HEK-Blue™-cells (Invivogen) overexpressing human TLR7, TLR8 or TLR9 receptors were used for screening inhibitors of these receptors using an inducible SEAP (secreted embryonic alkaline phosphatase) reporter gene under the control of the IFN-β minimal promoter fused to five NF-κB and AP-1-binding sites. Briefly, cells are seeded into Greiner 384 well plates (15000 cells per well for TLR7, 20,000 for TLR8 and 25,000 for TLR9) and then treated with test compounds in DMSO to yield a final dose response concentration range of 0.05 nM-50 μM. After a 30 minute compound pre-treatment at room temperature, the cells are then stimulated with a TLR7 ligand (gardiquimod at a final concentration of 7.5 μM), TLR8 ligand (R848 at a final concentration of 15.9 μM) or TLR9 ligand (ODN2006 at a final concentration of 5 nM) to activate NF-κB and AP-1 which induce the production of SEAP. After a 22 hour incubation at 37° C., 5% CO2, SEAP levels are determined with the addition of HEK-Blue™ Detection reagent (Invivogen), a cell culture medium that allows for detection of SEAP, according to manufacturer's specifications. The percent inhibition is determined as the % reduction in the HEK-Blue signal present in wells treated with agonist plus DMSO alone compared to wells treated with a known inhibitor.
A general note: Reporter assays use an easily measured gene product as a stand-in for the process of interest.

The next experiment deals with T2, human TLR9 (Homo sapiens, UniProt Q9NR96).
T2 construct: host or cells: HEK-Blue cells
T2 sequence (Q9NR96 26-1032): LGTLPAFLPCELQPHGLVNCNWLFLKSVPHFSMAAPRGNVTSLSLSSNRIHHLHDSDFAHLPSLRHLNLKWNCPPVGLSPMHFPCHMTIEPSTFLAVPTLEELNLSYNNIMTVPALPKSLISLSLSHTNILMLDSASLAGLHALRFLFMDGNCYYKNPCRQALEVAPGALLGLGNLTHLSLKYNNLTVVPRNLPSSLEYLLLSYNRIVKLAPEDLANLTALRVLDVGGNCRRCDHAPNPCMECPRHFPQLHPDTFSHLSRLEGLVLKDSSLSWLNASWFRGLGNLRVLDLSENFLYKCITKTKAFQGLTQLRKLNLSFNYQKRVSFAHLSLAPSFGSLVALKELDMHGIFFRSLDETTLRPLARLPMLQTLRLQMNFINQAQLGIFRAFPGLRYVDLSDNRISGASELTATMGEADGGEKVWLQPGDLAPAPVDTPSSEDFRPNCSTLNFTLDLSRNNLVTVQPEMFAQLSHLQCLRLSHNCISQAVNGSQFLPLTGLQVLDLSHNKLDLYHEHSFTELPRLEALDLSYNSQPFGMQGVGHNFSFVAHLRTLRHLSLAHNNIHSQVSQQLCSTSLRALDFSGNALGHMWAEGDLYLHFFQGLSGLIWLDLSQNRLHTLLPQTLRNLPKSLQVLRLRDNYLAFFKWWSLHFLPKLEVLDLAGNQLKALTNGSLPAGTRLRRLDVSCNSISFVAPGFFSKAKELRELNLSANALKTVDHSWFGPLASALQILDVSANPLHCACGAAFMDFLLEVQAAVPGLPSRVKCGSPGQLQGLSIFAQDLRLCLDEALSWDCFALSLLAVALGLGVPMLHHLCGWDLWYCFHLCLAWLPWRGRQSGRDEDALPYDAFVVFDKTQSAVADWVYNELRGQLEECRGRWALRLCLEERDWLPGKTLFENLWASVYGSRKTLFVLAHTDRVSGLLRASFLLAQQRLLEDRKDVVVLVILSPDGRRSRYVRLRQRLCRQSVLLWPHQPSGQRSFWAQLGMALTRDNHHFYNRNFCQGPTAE
Kind of experiment: TLR9 inhibition reporter assay (HEK-Blue cells, SEAP reporter). The following applies: HEK-Blue cells overexpressing human TLR9; stimulated with ODN2006 5 nM; SEAP read after 22 hour; dose range 0.05 nM-50 μM. The method, then:
as §1

The target in the next experiment is T3, human TLR8 (Homo sapiens, UniProt Q9NR97).
T3 construct: host or cells: HEK-Blue cells
T3 sequence (Q9NR97 27-1041): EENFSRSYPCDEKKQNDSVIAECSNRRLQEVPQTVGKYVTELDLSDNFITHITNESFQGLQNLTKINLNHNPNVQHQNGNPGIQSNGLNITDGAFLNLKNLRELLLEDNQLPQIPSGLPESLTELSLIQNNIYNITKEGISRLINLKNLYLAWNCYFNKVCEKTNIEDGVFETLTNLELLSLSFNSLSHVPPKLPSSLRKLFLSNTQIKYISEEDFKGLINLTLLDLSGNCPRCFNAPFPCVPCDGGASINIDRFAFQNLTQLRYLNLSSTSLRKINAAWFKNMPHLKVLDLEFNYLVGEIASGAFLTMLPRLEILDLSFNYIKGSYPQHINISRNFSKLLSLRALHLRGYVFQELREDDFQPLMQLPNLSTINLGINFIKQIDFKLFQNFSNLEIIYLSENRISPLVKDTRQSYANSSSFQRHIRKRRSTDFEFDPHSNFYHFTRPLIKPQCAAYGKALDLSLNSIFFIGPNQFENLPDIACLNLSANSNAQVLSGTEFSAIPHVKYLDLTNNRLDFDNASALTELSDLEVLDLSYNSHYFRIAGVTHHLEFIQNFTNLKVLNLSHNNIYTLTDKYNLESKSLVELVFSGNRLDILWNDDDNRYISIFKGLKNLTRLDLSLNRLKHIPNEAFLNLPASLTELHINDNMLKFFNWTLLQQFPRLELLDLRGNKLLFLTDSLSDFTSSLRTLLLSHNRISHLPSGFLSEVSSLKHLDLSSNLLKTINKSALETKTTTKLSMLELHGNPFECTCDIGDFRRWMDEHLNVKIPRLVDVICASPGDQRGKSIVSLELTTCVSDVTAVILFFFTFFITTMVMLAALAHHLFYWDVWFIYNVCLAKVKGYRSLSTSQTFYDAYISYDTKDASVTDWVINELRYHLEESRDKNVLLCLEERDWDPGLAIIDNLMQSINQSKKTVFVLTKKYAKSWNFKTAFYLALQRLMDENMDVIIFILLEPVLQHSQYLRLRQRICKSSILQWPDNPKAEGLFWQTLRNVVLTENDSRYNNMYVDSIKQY
The experiment can be described thus: TLR8 inhibition reporter assay (HEK-Blue cells, SEAP reporter). The following applies: HEK-Blue cells overexpressing human TLR8; stimulated with R848 15.9 μM; SEAP read after 22 hour; dose range 0.05 nM-50 μM. The method, then: as §1

Molecules are shown by their SMILES. Bounds are passed on as bounds.

As a reminder, the IC50 is the midpoint of a concentration-inhibition curve. Read a high IC50 as lower potency. For `CC(C)N1CCC(c2ccc(-c3ccc4[nH]c(=O)c(-c5ccc(S(N)(=O)=O)cc5)cc4c3)cc2)CC1` [Example 65, 4-(2-oxo-6-{4-[1-(propan-2-yl)piperidin-4-yl]phenyl}-1,2-dihydroquinolin-3-yl)benzene-1-sulfonamide], the half-maximal inhibitory concentration (IC50) was 342 nM against human TLR7, 55 nM against human TLR9 and 4870 nM on human TLR8.

Take `CCCn1c(=O)c(-c2ccc(S(C)(=O)=O)cc2)cc2cc(-c3ccc(C4CCN(C(C)C)CC4)cc3)ccc21` [Example 80, 3-(4-methanesulfonylphenyl)-6-{4-[1-(propan-2-yl)piperidin-4-yl]phenyl}-1-propyl-1,2-dihydroquinolin-2-one]: the 50% inhibitory concentration (IC50) at human TLR7 turned out to be 8380 nM; at human TLR9 it was 298 nM; on human TLR8, 15100 nM.

Regarding `CC(C)N1CCN(c2ccc(Nc3ccc4[nH]c(=O)c(-c5ccc(S(C)(=O)=O)cc5)cc4c3)cc2)CC1` [Example 90, 3-(4-methanesulfonylphenyl)-6-({4-[4-(propan-2-yl)piperazin-1-yl]phenyl}amino)-1,2-dihydroquinolin-2-one], the figures for the IC50 against human TLR7, on human TLR9 and against human TLR8 were 3090 nM, 493 nM and at least 50000 nM, respectively.

As for `CC(C)N1CCC(c2ccc(-c3ccc4[nH]c(=O)c(-c5cccc(C#N)c5)cc4c3)cc2)CC1` [Example 69, 3-(2-oxo-6-{4-[1-(propan-2-yl)piperidin-4-yl]phenyl}-1,2-dihydroquinolin-3-yl)benzonitrile], the IC50 against human TLR7 stood at 538 nM; on human TLR9, 75 nM; at human TLR8, 17600 nM.

Consider `CC(C)C(=O)Nc1ccc(-c2cc3cc(-c4ccc(N5CCN(C(C)C)CC5)cc4)ccc3n(C)c2=O)cc1` [Example 26, 2-methyl-N-[4-(1-methyl-2-oxo-6-{4-[4-(propan-2-yl)piperazin-1-yl]phenyl}-1,2-dihydroquinolin-3-yl)phenyl]propanamide], for which the 50% inhibitory concentration (IC50) against human TLR7 turned out to be 1800 nM; on human TLR9 it was 231 nM; at human TLR8, 673 nM.

Regarding `CC(C)N1CCN(c2ccc(-c3ccc4[nH]c(=O)c(-c5ccc(F)cc5)cc4c3)cc2)CC1` [Example 31, 3-(4-fluorophenyl)-6-{4-[1-(propan-2-yl)piperazin-1-yl]phenyl}-1,2-dihydroquinolin-2-one], the IC50 against human TLR7 came to 42600 nM; at human TLR9 it was 286 nM; against human TLR8, 16700 nM.

Regarding `CC(C)N1CCN(c2ccc(-c3ccc4[nH]c(=O)c(-c5cc(F)ccc5F)cc4c3)cc2)CC1` [Example 20, 3-(2,5-difluorophenyl)-6-{4-[4-(propan-2-vi)piperazin-1-yl]phenyl}-1,2-dihydroquinolin-2-one], the IC50 against human TLR7 came to 1560 nM; on human TLR9, 203 nM; against human TLR8 it was 5410 nM.

In the case of `CC(C)N1CCN(c2ccc(-c3ccc4[nH]c(=O)c(-c5ccc(N6CC[C@H](F)C6)cc5)cc4c3)cc2)CC1` [Example 22, 3-{4-[(3S)-3-fluoropyrrolidin-1-yl]phenyl}-6-{4-[4-(propan-2-yl)piperazin-1-yl]phenyl}-1,2-dihydroquinolin-2-one], the values for the concentration for half-maximal inhibition (IC50) at human TLR7, against human TLR9 and at human TLR8 were at least 50000 nM, 216 nM and at least 50000 nM, respectively.

`CC(C)N1CCN(c2ccc(-c3ccc4[nH]c(=O)c(-c5ccc(C(=O)O)cc5)cc4c3)cc2)CC1` [Example 62, 4-(2-oxo-6-{4-[4-(propan-2-yl)piperazin-1-yl]phenyl}-1,2-dihydroquinolin-3-yl)benzoic acid]: the concentration for half-maximal inhibition (IC50) against human TLR7 is at least 50000 nM; against human TLR9, 1760 nM; against human TLR8, at least 50000 nM.

Take `CC(C)N1CCC(c2ccc(-c3ccc4[nH]c(=O)c(-c5ccc(N(C)C)cc5)cc4c3)cc2)CC1` [Example 88, 3-[4-(dimethylamino)phenyl]-6-{4-[1-(propan-2-yl)piperidin-4-yl]phenyl}-1,2-dihydroquinolin-2-one]: the IC50 was 449 nM against human TLR9 and 118 nM against human TLR8.

With `CC(C)N1CCN(c2ccc(-c3ccc4[nH]c(=O)c(-c5cncnc5)cc4c3)cc2)CC1` [Example 34, 6-{4-[4-(propan-2-yl)piperazin-1-yl]phenyl}-3-(pyrimidin-5-yl)-1,2-dihydroquinolin-2-one], the half-inhibitory concentration (IC50) at human TLR7 was determined as 1080 nM; against human TLR9, 307 nM.
